How the values were obtained:
C. elegans strain CL4176 = test: Amyloid-associated paralysis in C. elegans strain CL4176; type: in vivo; settings: after induction of Aβ1-42 in muscle (FIG. 5)
GSK3β = biological target: T1, GSK3β (Homo sapiens, UniProt P49841); test: GSK3β activity (kinase) assay in vitro; type: biochemical; settings: dose-response curves (FIG. 21)
T1 construct: purchased BPS Bioscience
Protocol: The GSK3β activity assay kit (BPS Bioscience) was used, with modification of the manufacturer's protocol. The assay was done in three replicates at three doses (0.01, 0.1, and 1 μM) of each inhibitor (TDZD8, PNR962) in a 96-well plate, using 1% DMSO (final solvent concentration) as the drug-free control. The kinase assay reaction was incubated for 45 minutes at 30′C and Kinase-Glo Max Assay (Promega) was then added and incubated for 15 minutes at room temperature. A negative control contained all the reagents except the test inhibitors and GSK3β enzyme and positive control contained all reagents except the test inhibitor. SpectraMax M3 (Molecular Devices, LLC) was used as a microplate reader. The luminescence negative control reading was used as 0% activity, positive control reading was used as 100% activity and kinase assay was based on the fact that all the reading in wells with test inhibitor, should lie between these values of negative control and positive controls. GSK3β inhibitions were calculated after subtracting negative control values from all the wells and graphs were generated using GraphPad Prism.
The best predicted inhibitors were synthesized, and screened in both human neuronal cells, and in C. elegans models of neurodegeneration. These compounds were also tested for their ability to inhibit GSK3β activity in vitro.

tau hyperphosphorylation = test: Tau hyperphosphorylation in rat cortical cells; type: cell-based; settings: FIG. 23
Protocol: Microtubule assembly involves stable tau binding to other proteins in the complex, including tubulin. Hyperphosphorylated tau is readily sequestered into aggregates and generates intracellular neurofibrillary tangles (“tau tangles”). […] The top drugs were tested for impact on tau hyperphosphorylation in rat cortical cells (FIG. 23).
Primary cultures were established from cerebral cortex of E18 rats; under serum-free conditions (Neurobasal/B27) these cultures contain ˜85% neurons, with the remainder comprising astrocytes (˜12% and microglia ˜3%). At the […], triplicate cultures were exposed to the test compounds at the indicated concentrations; a separate triplicate was exposed to vehicle (0.5% DMSO final concentration). After 24 h, cultures were washed once with ice-cold PBS and then scraped in RIPA buffer containing inhibitors of proteases and phosphatases. Lysates were centrifuged at 14,000 g at 4° C. for 7 min. Supernatants were removed and stored at −80° C. after removal of small aliquots for determination of protein concentration by BCA. Samples equilibrated for total protein were analyzed by Wes™ capillary-gel immunodetection (ProteinSimple) using the AT8 clone of anti-phosphoTau (Invitrogen MN 1020) or total Tau (ABclonal A0002). Detected antigen was calculated by peak area (automated peak fit), and values are reported as AT8 normalized to total Tau.

T1 sequence (P49841 whole entry): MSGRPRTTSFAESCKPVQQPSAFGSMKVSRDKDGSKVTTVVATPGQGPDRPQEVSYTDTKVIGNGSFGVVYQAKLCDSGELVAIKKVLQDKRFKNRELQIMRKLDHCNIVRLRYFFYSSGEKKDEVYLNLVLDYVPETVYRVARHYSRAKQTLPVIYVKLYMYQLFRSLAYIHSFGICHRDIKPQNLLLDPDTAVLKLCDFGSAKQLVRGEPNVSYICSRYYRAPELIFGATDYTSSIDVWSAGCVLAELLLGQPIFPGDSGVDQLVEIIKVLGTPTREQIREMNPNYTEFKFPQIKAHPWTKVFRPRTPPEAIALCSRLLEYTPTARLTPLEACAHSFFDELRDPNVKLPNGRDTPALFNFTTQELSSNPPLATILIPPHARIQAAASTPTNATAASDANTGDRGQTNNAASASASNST

SMILES: O=c1sn(CCI)c(=O)n1Cc1ccccc1 [PNR-962]
- paralysis rescued / reduced (C. elegans strain CL4176): > 75%
- ability to inhibit GSK3β activity in vitro (GSK3β): markedly superior to TDZD8
- tau hyperphosphorylation (tau hyperphosphorylation): suppression of tau hyperphosphorylation

Source: patent US20230125667A1, “NOVEL TDZD ANALOGS AS AGENTS THAT DELAY, PREVENT, OR REVERSE AGE-ASSOCIATED DISEASES AND AS ANTI-CANCER AND ANTILEUKEMIC AGENTS” (United States Government as represented by the Department …, priority 2020, published 2023)
